Data set [1] relates to cells expressing yCD-FIRE. Briefly: yCD-FIRE expression and 5-FC cell killing. The class given is cell-based.
Data set [2] concerns G816 cells (glioma-initiating cell line). As to the kind of experiment: p38-regulated HSVtk constructs: FLAG abundance. Conditions: for FLAG expression of FLAG-NLS-HSVtk-MEF2A: two days, SB 203580 10 μM, trametinib 50 nM. The class given is cell-based, human. The procedure:
Referring to FIG. 18B, four designs tested included peptide sequences from the MAPK targets CHOP, MEF2A, p21, and FRA1. […] Sequences shown in blue were taken from proteins primarily phosphorylated by p38, while domains in gray were taken from the original FRA 1-PEST PEST design. The ERK recognition sequence was removed from these designs to improve specificity toward p38. G816 cells (glioma-initiating cell line) expressing each of the four HSVtk constructs were grown in 21% oxygen or 1% oxygen (hypoxia), with or without SB 203580 (p38 inhibitor, 10 μM for two days. Hypoxic induction of p38 phosphorylation promoted protein stabilization, which was abrogated with the addition of a p38 inhibitor to varying degrees for each construct.
Referring to FIG. 22A, G816-FLAG-NLS-HSVtk-MEF2A cells were treated with DMSO (vehicle), GCV (50 μM), or TMZ (500 μM) for up to 48 hours.
Referring to FIG. 22C, G816-FLAG-NLS-HSVtk-MEF2A cells were treated with DMSO (vehicle), SB 203580 (p38 inhibitor (p38i), 10 μM), or trametinib (MEK inhibitor (MEKi), 50 nM), in addition to TNFα, GCV, or TMZ for two days.

The test system of data set [3] is U87 MG cells expressing AKT-gen2. Briefly: Effect of chemotherapy on AKT-gen2 SGT (FLAG) expression. Conditions: 48 hr; for FLAG expression of AKT-gen2 SGT vs control: carboplatin 200 μM or TMZ 300 μM, immunoblot. The class given is cell-based. As for the experimental part:
U87 MG cells expressing AKT-gen2 were treated with carboplatin (200 μM), TMZ (300 μM), or DMSO, and lysed after 48 hours. Densitometry was used to quantify the GAPDH-normalized FLAG signal.
Cells were also treated with carboplatin (125 μM) or DMSO for 48 hours and immunofluorescence microscopy was performed using antibodies against the proteins as shown in FIG. 29B. The expression of each variant was quantified as the mean FLAG expression on a per-cell basis.
(§1) To determine if a CK2-regulated SGT would cooperate with chemotherapies used to treat glioblastoma, we measured the response of AKT-gen2 transductants to a combination of GCV with temozolomide (TMZ) or carboplatin. We hypothesized that a synergistic effect could occurs because CK2 contributes to DNA damage response and responds to stress signals; it seemed sensible that this could drive higher CK2 activity26,27,29.
[…]. We further examined the extent of carboplatin-mediated effects on CK2 expression increase through immunofluorescence microscopy (FIG. 29B). AKT-gen2 transductants were plated in 96-well glass-bottomed plates for imaging and treated with a reduced carboplatin concentration (125 μM) to promote the retention of adherent cells.
Because we observed increased CK2α and CK2α′ in carboplatin-treated cells (FIGS. 27A, 36A, and 36B), we next examined if the carboplatin-dependent increase in AKT-gen2 expression relies on CK2 expression. In U87 MG AKT-gen2 transductants expressing CK2 (α/α′ catalytic subunits) or control shRNA, CK2α knockdown abrogated the carboplatin-mediated increase in SGT expression (FIG. 29C).
Background: A western blot detects proteins with antibodies after separation by electrophoresis.

Data set [4] concerns U87 MG AKTgen2 transductants. As to the kind of experiment: Cell death by flow cytometry (TO-PRO-3), carboplatin pre-treatment followed by GCV. Conditions: carboplatin 200 μM two days and/or GCV 50 μM three days. Background: In flow cytometry, cells or beads pass a laser one at a time.
Protocol: Flow cytometry for cell death quantification. For cell death experiments, cells were plated in 6-well plates, and cell treatments were performed as described in figure legends. At the conclusion of experiments, floating and adherent cells were collected, resuspended in PBS containing TO-PRO-3 (Life Technologies, 1:10,000), and stored on ice until analysis. Within an hour of collection, cells were analyzed for TO-PRO-3 permeability with a FACSCalibur cytometer (BD Biosciences). Data collected from flow cytometry experiments was analyzed in R using the FlowCore, ggCyto, and OpenCyto packages.
Cells expressing AKT-gen2 were also pre-treated with DMSO or carboplatin (200 μM) for two days, followed by treatment with DMSO or GCV (50 μM) administration for three days. Cell death was then measured by flow cytometry through TOPRO staining.
Another data set relates to CK2α and CK2α′. Briefly: CK2 catalytic subunit expression after TMZ or carboplatin (immunofluorescence). The settings on record: U87 MG cells, drug treated. The class given is cell-based. The procedure: FIGS. 36A and 36B. Effect of TMZ or carboplatin on CK2 expression. U87 MG cells were subjected to immunofluorescence microscopy using antibodies against the two CK2 catalytic (FIG. 36A: CK2α, FIG. 36B: CK2α′) subunits. Image is representative of n=3 replicates and data are plotted as mean±sd. A Student's t test was applied to determine the significance of observed differences; *, **, and *** indicate p=0.05, 0.01, or 0.001, respectively.
as §1

Take `Nc1nc(=O)[nH]cc1F` [Variant 5-FC, 5-fluorocytosine]: in data set [1] (cells expressing yCD-FIRE), the “cell viability in response to 5-FC plus growth factors” value is on record as “decreases”. Further, the “5-FC IC50” value in data set [1] (cells treated with growth factors vs not treated) is “lower”.
Consider `Nc1nc(=O)c2ncn(COC(CO)CO)c2[nH]1` [GCV, ganciclovir], for which the “FLAG abundance of FLAG-NLS-HSVtk-MEF2A relative to vehicle” value in data set [2] (GCV 50 μM or TMZ 500 μM, 48 hours) was “increased FLAG abundance”. In addition, the “FLAG expression of FLAG-NLS-HSVtk-MEF2A” value in data set [2] is listed as “increased”.
Regarding `C[S+]([O-])c1ccc(-c2nc(-c3ccncc3)c(-c3ccc(F)cc3)[nH]2)cc1` (stereo not drawn) [SB 203580], in data set [2], the “FLAG expression of FLAG-NLS-HSVtk-MEF2A” value is “attenuated in some cases”.
Take `Cn1nnc2c(C(N)=O)ncn2c1=O` [TMZ, temozolomide]: in data set [3], the “FLAG expression of AKT-gen2 SGT vs control” value is reported as “no effect”.
On to `CC(=O)Nc1cccc(-n2c(=O)n(C3CC3)c(=O)c3c(Nc4ccc(I)cc4F)n(C)c(=O)c(C)c32)c1` [trametinib, N-[3-[3-cyclopropyl-5-(2-fluoro-4-iodoanilino)-6,8-dimethyl-2,4,7-trioxopyrido[4,3-d]pyrimidin-1-yl]phenyl]acetamide], for which, in data set [2], the “FLAG expression of FLAG-NLS-HSVtk-MEF2A” value is “promoted PEST stabilization”.
As for `N.N.O=C([O-])C1(C(=O)[O-])CCC1.[Pt+2]` [Carboplatin, carboplatin], the “reduction in cell viability” value in data set [4] was approximately 15%. The “CK2α and CK2α′ expression” value in the data set on CK2α and CK2α′ is listed as “stronger increase”. Further, the “carboplatin-mediated increase in SGT expression” value in data set [3] (CK2α knockdown, carboplatin 200 μM) is recorded as “abrogated”. Also, the “FLAG expression of AKT-gen2 SGT” value in data set [3] (carboplatin 125 μM, immunofluorescence) is on record as “significant enhancement in FLAG expression”. The “FLAG expression of AKT-gen2 SGT vs control” value in data set [3] was “significant increase in FLAG expression”. Moreover, in data set [3] (cells expressing CK2α′ shRNA, carboplatin 200 μM), the “carboplatin-mediated change in SGT accumulation” value was “small but insignificant increase”. Further, the “carboplatin-mediated change in AKT-gen2 expression” value in data set [3] (cells expressing control shRNA, carboplatin 200 μM) is reported as “significant increase”.
For the compound TNFα, the “FLAG expression of FLAG-NLS-HSVtk-MEF2A” value in data set [2] was “increased”.

The record behind these values is patent US20250228978A1, “ENGINEERING SUICIDE GENE APPROACHES TO IMPROVE CHEMOTHERAPEUTIC RESPONSE IN CANCER” (University of Virginia Patent Foundation, priority 0001, published 2025).
